{"source": "patent EP3960174B1", "about": "(priority 2020, dated 2022)", "data": [{"biological_target": "T1, AChE (Homo sapiens, UniProt P22303)", "T1 construct": "purchased Sigma Aldrich, Taufkirchen, D", "T1 sequence (P22303 32-614)": "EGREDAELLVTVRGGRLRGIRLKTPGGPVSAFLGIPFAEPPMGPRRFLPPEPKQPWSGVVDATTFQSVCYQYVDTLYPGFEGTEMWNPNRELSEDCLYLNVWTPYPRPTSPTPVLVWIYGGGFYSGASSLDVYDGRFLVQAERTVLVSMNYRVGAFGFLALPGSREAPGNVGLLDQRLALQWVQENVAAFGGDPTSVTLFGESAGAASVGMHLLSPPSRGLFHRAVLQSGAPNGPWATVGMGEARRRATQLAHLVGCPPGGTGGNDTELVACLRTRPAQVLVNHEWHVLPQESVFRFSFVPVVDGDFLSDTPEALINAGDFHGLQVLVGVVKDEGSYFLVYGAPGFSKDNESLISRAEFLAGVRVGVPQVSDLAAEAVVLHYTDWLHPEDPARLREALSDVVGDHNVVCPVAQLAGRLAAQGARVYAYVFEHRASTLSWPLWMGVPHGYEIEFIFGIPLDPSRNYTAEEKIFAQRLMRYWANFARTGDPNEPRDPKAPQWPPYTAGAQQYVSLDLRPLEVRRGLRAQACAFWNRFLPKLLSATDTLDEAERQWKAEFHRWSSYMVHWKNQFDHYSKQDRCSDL", "assay": "biochemical", "values": [{"smiles": "CC1N=C(CCCCCCCCCCc2cc(O)ccc2OC2OC(CO)C(O)C(O)C2O)CC1O", "note": "(stereo not drawn) [compound 1, tiliine A]", "IC50": "231 µM"}, {"smiles": "CC1NC(CCCCCCCCCc2cc(O)ccc2OC2OC(CO)C(O)C(O)C2O)CCC1O", "note": "(stereo not drawn) [compound 2, tiliamine A]", "IC50": "172 µM"}, {"smiles": "CC(=O)OC1CCC(CCCCCCCCCc2cc(O)ccc2O[C@@H]2O[C@H](CO)[C@@H](O)[C@H](O)[C@H]2O)NC1C", "note": "(stereo partly drawn) [compound 3, acetyl-tiliamine A]", "IC50": "50% inhibition level was not achieved"}]}]}
